Patent US9598459B2, “Pharmaceutical compositions and methods” (priority 2015, dated 2017)
Converted amounts (≈) assume the structure as drawn. “And” between values parts separate entries of the source, which are not always exact repeats. Equal values may be shown once. Read-outs that look alike come from different tables or passages of the source.

Legend:
MDCK = details: dog
[1] = system: Hepatitis B virus (HBV) ayw; assay: Hepatitis B virus replication in HepAD38 (32P dot blot); assay type: cell-based; details: for HBV replication: Fixed: 10 μM
[2] = Cytotoxicity on RD host cells; assay type: cell-based; details: human, RD cells
Tacaribe TRVL11573 = assay: microbe, parasite or virus in culture; assay type: cell-based, Tacaribe virus; details: Mammarenavirus tacaribeense, Vero
cytosolic GRs [3] = target: T1, cytosolic GRs (Homo sapiens, UniProt P04150); details: Peeters et al., 2008; cited from earlier work
T1 sequence (P04150 1-777): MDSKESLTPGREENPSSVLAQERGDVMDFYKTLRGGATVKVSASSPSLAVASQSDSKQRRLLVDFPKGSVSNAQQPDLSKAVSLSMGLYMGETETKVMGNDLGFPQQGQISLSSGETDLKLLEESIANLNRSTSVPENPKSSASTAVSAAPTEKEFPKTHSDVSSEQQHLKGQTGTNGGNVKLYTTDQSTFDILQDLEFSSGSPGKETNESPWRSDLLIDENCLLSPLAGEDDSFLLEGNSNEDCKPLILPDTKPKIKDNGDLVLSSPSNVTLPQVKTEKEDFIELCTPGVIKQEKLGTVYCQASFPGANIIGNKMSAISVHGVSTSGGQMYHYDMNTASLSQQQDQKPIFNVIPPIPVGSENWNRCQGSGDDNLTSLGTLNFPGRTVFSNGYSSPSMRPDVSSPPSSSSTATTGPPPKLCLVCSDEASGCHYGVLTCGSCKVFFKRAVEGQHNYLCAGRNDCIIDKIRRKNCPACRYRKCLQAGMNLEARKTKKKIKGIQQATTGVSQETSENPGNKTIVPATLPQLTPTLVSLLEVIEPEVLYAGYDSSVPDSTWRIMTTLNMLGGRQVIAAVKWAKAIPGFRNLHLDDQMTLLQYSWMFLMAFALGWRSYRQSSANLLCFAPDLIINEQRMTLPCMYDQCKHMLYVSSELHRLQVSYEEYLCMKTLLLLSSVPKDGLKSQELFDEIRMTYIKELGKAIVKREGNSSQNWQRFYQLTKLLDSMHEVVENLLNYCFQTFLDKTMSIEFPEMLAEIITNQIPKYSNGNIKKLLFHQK

Cytotoxicity on CCRF-CEM = details: human
in vitro [4] = details: African green monkey
[5] = target: cytosolic progesterone receptors (PR) (Homo sapiens, UniProt P06401); details: Peeters et al., 2008; cited from earlier work
[6] = Toxicity in RAW267.4 cells (neutral red); details: mouse, RAW267.4 cells, CC50, Neutral Red (Toxicity), Example 11
HG23 = details: human
[7] = cited from earlier work
[8] = Cytotoxicity on primary human foreskin fibroblasts; details: human
cytosolic GRs [9] = target: T1, cytosolic GRs; assay: Binding to cytosolic glucocorticoid receptors
[10] = rats, twice daily 4 mg kg−1 po; cited from earlier work
in vitro [11] = details: African green monkey, Cytotoxicity CC50
in vitro [12] = assay: in vitro
RD = assay: Cytotoxicity on RD host cells; assay type: cell-based
CCRF-CEM = assay: Cytotoxicity on CCRF-CEM; details: CCRF-CEM
[13] = system: Japanese encepahalitis virus SA-14; assay: Japanese encephalitis virus antiviral screen in Vero 76; assay type: cell-based; details: JEV SA-14, Vero 76
HIV-1 LAV = assay: Inhibition of inducible HIV-1 LAV replication in OM-10.1 (RT values); assay type: cell-based, human immunodeficiency virus type 1; details: for RT Values: SAMPLE 1-3, MEAN

Sequence of cytosolic progesterone receptors (PR) (P06401 whole entry): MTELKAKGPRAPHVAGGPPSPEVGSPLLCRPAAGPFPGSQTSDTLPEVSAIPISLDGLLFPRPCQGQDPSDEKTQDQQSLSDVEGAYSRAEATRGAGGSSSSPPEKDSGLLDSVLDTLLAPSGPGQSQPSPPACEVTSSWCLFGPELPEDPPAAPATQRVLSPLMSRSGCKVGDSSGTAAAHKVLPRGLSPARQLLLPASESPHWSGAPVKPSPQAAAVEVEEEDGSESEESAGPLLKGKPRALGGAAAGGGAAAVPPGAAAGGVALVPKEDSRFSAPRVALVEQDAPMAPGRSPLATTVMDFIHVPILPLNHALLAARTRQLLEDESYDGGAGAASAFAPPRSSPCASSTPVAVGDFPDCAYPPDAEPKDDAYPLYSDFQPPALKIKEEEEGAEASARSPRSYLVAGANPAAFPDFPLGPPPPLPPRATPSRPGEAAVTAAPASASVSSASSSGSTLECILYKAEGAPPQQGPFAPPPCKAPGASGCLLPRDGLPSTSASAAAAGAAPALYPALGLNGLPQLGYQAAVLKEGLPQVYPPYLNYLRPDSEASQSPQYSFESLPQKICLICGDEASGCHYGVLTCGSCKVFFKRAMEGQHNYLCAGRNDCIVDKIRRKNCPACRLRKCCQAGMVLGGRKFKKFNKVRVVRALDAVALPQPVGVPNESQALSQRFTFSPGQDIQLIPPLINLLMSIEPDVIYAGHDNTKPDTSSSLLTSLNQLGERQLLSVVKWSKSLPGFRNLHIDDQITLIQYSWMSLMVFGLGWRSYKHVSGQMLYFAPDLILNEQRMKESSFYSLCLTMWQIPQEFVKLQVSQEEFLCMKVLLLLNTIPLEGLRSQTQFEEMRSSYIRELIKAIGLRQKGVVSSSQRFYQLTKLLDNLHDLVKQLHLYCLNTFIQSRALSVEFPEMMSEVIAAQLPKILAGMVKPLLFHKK

## CC#C[C@]1(O)CC[C@H]2[C@@H]3CCC4=CC(=O)CCC4=C3[C@@H](c3ccc4c(c3)OCO4)C[C@@]21C [PT150, (11β,17β)-11-(1,3-benzodioxol-5-yl)-17-hydroxy-17-(1-propynyl)-estra-4,9-dien-3-one]
MDCK
  CC50: 37 µg/mL (≈ 85.9 µM)
[1]
  HBV replication: +188.4%
[1]; Hepatitis B virus
  EC50: > 10 µM
[2]; Cytotoxicity 50% CC50, Enterovirus D68 screen, Tables 5-6
  CC50: 10.2 µM
[2]; Enterovirus 68 screen, Table 4, read-out: CC50
  CC50: 10.2 µM
[2]; Enterovirus D68 screen, Neutral red, read-out: CC50
  CC50: 2.6 µg/mL
[2]; Enterovirus D68 screen, Visual, read-out: CC50
  CC50: 3.2 µg/mL
Tacaribe TRVL11573
  EC50: 7.2 µM and 3.1 µg/mL
Cytosolic GRs [3]
  bound to cytosolic GRs, value: 365%
Cytotoxicity on CCRF-CEM; CCRF-CEM cells (T-lymphoblastic acute T cell leukemia), Cytotoxicity CC50, CCRF-CEM
  CC50: 15.4 µM
Cytotoxicity on CCRF-CEM; CCRF-CEM cells, CC50, Cytotoxicity control, CCRF-CEM, CellTiter MTS
  CC50: 15.4 µM
In vitro [4]
  CC50: 10.9 µM
[5]
  value for the cytosolic progesterone receptors (PR): 6.4%
[6]
  CC50: 33 µM
HG23
  CC50: 8.7 µM
[7]; Phase II, patients, 900 mg per day for 2 weeks
  adverse indications of cell toxicity: no noted adverse indications of cell toxicity
[7]; phase I and phase II clinical trials
  significant toxicities and side effects: none were identified
[8]; primary HFF-1 human foreskin fibroblasts, CC50
  CC50: > 150 µM
[8]; primary HFF-1 human foreskin fibroblasts, CC50, Cytotoxicity control, Primary HFF-1, CellTiter-Glo
  CC50: > 150 µM
[8]; primary human foreskin fibroblasts (HFF / HFF-1), CC50, HFF / HFF-1 primary cells
  CC50: > 150 µM
[8]; primary human foreskin fibroblasts (HFF-1), CC50, Herpes simplex virus type 1 screen, Primary HFF-1, CellTiter-Glo
  CC50: > 150 µM
Cytosolic GRs [9]
  selectivity ratio (GR/PR): 57
[10]
  embryos lost: ~100%
In vitro [11]
  CC50: 44.3 µM
In vitro [12]; CC50
  CC50: > 100 µM
In vitro [12]; human, CC50
  CC50: 7.4 µM and 3.3 µg/mL
In vitro [12]; human, Cytotoxicity 50% CC50
  CC50: 7.4 µM

## CC#CC1(O)CCC2C3CCC4=CC(=NNC(N)=S)CCC4=C3C(c3ccc4c(c3)OCO4)CC21C.CC#CC1(O)CCC2C3CCC4=CC(=O)CCC4=C3C(c3ccc4c(c3)OCO4)CC21C.CC(C)=O.CCO.O (stereo not drawn) [PT155, ⅓ (11β,17β)-17-Hydroxy-11-[3,4-(methylenedioxy)phenyl]-17-(1-propyn-1-yl)estra-4,9-dien-3-one (ORG34517)×(2EZ)-2-{(11β,17β)-17-hydroxy-11-[3,4-(methylenedioxy)phenyl]-17-(1-propyn-1-yl)estra-4,9-dien-3-ylidene}hydrazinecarbothioamide [71.8% (E), 28.2% (Z)] hemihydrate×¾% acetone× ⅛ ethanol]
Vero 76
  CC50: 45.4 µM
MA-104
  CC50: 17 µM
PBMC
  CC50: 82.6 µM
[1]
  EC50: > 10 µM
  HBV replication: +147.4%
RD; Enterovirus D68 screen, Neutral red
  CC50: 8.1 µg/mL
RD; Enterovirus D68 screen, Visual
  CC50: 3.2 µg/mL
RD; read-out: Cytotoxicity 50% CC50, Enterovirus D68 screen, Tables 5-6
  CC50: 5.8 µM
HuH-7
  CC50: 39.7 µM
CCRF-CEM; Cytotoxicity control, CellTiter MTS
  CC50: 7.1 µM
CCRF-CEM; read-out: Cytotoxicity CC50
  CC50: 7.1 µM
Vero
  cellular growth at fixed 100 μM concentration: (96.1) %
[13]; Neutral Red (Cytopathic effect/Toxicity)
  EC50: 2.6 µg/mL
[13]; Visual (Cytopathic effect/Toxicity), unit from Conc. Range
  EC50: 2.6 µg/mL
HIV-1 LAV; 0.01 μM
  % VC: 100.0%
  RT Values: 32320 cpm and 29982 cpm and 29144 cpm
HIV-1 LAV; 0.03 μM
  % VC: 107.7%
  RT Values: 33018 cpm and 33056 cpm and 32387 cpm
HIV-1 LAV; 0.10 μM
  % VC: 99.8%
  RT Values: 29801 cpm and 29663 cpm and 31726 cpm
HIV-1 LAV; 1.00 μM
  % VC: 82.2%
  RT Values: 23474 cpm and 26693 cpm and 24955 cpm
HIV-1 LAV; 3.16 μM
  % VC: 57.9%
  RT Values: 16156 cpm and 21122 cpm and 15662 cpm
HIV-1 LAV; 10.0 μM
  % VC: 28.9%
  RT Values: 8592 cpm and 7827 cpm and 10011 cpm
HIV-1 LAV; 31.6 μM
  % VC: 15.8%
  RT Values: 4254 cpm and 4765 cpm and 5466 cpm
HIV-1 LAV; 100 μM
  % VC: 0.8%
HIV-1 LAV; OM-10.1
  IC50: 4.33 µM
  IC90: 49.4 µM
  IC 95%: 72.4 µM
HIV-1 LAV; OM-10.1, Table 7, read-out: EC50
  EC50: 4.33 µM
HIV-1 LAV; OM-10.1, Table 7, read-out: EC90
  EC90: 49.4 µM
